We go through 38 molecules from patent US20120264755A1, “PYRIDINYL DERIVATIVES AS INHIBITORS OF ENZYME NICOTINAMIDE PHOSPHORIBOSYLTRANSFERASE” (TopoTarget, priority 2009, published 2012).

The structures appear in SMILES notation.

This assay relates to A2780 cells. Put plainly: In vitro cell proliferation assay (WST-1 assay). The format is cell-based. The note with it: Homo sapiens, total incubation time 72 h, WST-1 readout. The method, then:
A2780 cells were seeded in 96-well plates at 3×10^3 cells/well in 100 μL of culture medium, 8 wells were left empty for media only controls.
After 24 h the compound titrations were performed, in a separate dilution plate, by serially diluting the compounds of general formula (I) in culture medium. A 100 μL of each dilution was added to the plated cells, this was done in triplicate, and controls (e.g. DMSO and blanks) were included. The plates were incubated for 24 h at 37° C. in a CO2 incubator. The compound titrations were repeated in a separate dilution plate after 24 h. The media plus compound from the assay plates were then aspirated. A 100 μL of media was then added to all wells, followed by 100 μL of each compound dilution. The plates were incubated for a further 48 h at 37° C. in a CO2 incubator (total incubation time 72 h). The number of viable cells was then assessed using Cell Proliferation Reagent WST-1. 10 μL of WST-1 reagent added to each well and incubated for one to four hours at 37° C. in CO2 incubator. The absorbance was measured (450 nm/690 nm).
The activity of compounds of general formula (I) in reducing the number of viable cells was calculated as:
% activity=[(S^c−B)/(S^o−B)]×100
S^c denotes signal measured in the presence of test compound, S^o denotes signal detected in the absence of compound, and B denotes background signal, measured in blank wells containing medium only. Analyse data using GraphPad Prism.

The molecule `N#C/N=C(\NCCCCCCCN(CCF)S(=O)(=O)C1CCCCC1)Nc1ccncc1` [Compound 1098, N-(7-(2-cyano-3-(pyridin-4-yl)guanidino)heptyl)-N-(2-fluoroethyl)cyclohexansylfonamide] yielded an IC50 of 0.07 nM. The molecule `CC(C)S(=O)(=O)N(CCCCCCCCNC(=O)Nc1ccncc1)OCc1ccccc1` [Compound 1028, N-(Benzyloxy)-N-(8-(3-pyridin-4-ylureido)octyl)propane-2-sulfonamide] had an IC50 of 0.37 nM. With `CC(C)S(=O)(=O)N(CCCCCCCCN/C(=N\C#N)Nc1ccncc1)OCc1ccccc1` [Compound 1024] the figure was 0.047 nM. With `CS(=O)(=O)N(CCCCCCCCN/C(=N\C#N)Nc1ccncc1)OCc1ccccc1` [Compound 1020] the figure was 0.018 nM; with `N#C/N=C(\NCCCCCCCCN(CCCN1CCOCC1)C(=O)c1ccccc1)Nc1ccncc1` [Compound 1071, N-(8-(2-cyano-3-(pyridin-4-yl)guanidino)octyl)-N-(3-morpholinopropyl)benzamide], 0.049 nM.

`O=c1c(NCCCCCCCN(CCCN2CCOCC2)S(=O)(=O)C2CCCC2)c(Nc2ccncc2)c1=O` [Compound 1019, N-(7-(3,4-dioxo-2-(pyridin-4-ylamino)cyclobut-1-enylamino)heptyl)-N-(3-morpholinopropyl)cyclopentanesulfonamide]: 0.44 nM corresponded to half-maximal inhibition (IC50). Regarding `N#C/N=C(\NCCCCCCCCN(CCF)S(=O)(=O)C1CCCCC1)Nc1ccncc1` [Compound 1103], the IC50 turned out to be 0.005 nM. With `CCNC(=O)N(CCCCCCCCN/C(=N\C#N)Nc1ccncc1)OCC1CCCCC1` [Compound 1125, 1-(8-(2-cyano-3-(pyridin-4-yl)guanidino)octyl)-N-(cyclohexylmethoxy)-3-ethylurea] the figure was 0.057 nM; with `O=C(NCCCCCCCN(OC1CCCCO1)S(=O)(=O)Cc1ccccc1)NCc1cccnc1` (centres unmarked) [Compound 1057, 1-Phenyl-N-(7-(3-(pyridin-3-ylmethyl)ureido)heptyl)-N-(tetrahydro-2H-pyran-2-yloxy)methanesulfonamide], 0.37 nM; with `N#CN=C(NCCCCCCOc1ccc(Cl)cc1)Nc1ccncc1` [CHS828, 1-(6-(4-chlorophenoxy)hexyl)-2-cyano-3-(pyridine-4-yl)guanidine, reference compound], 0.52 nM. With `N#C/N=C(\NCCCCCCCN(CCCN1CCOCC1)C1CCCCC1)Nc1ccncc1` [Compound 1002, 2-cyano-1-(7-(cyclohexyl(3-morpholinopropyl)amino)heptyl)-3-(pyridin-4-yl)guanidine] the figure was 2.03 nM; with `O=C(NCCCCCCCCN(CCCN1CCOCC1)C(=O)c1ccccc1)NCc1cccnc1` [Compound 1073, N-(3-morpholinopropyl)-N-(8-(3-(Pyridin-3-ylmethyl)ureido)octyl)benzamide], 0.31 nM; with `N#C/N=C(\NCCCCCCCCN(CCCN1CCOCC1)C(=O)NC1CCCCC1)Nc1ccncc1` [Compound 1093, 1-(8-(2-cyano-3-(pyridin-4-yl)guanidino)octyl)-3-cyclohexyl-1-(morpholinopropyl)urea], 0.063 nM. With `CCS(=O)(=O)N(CCCCCCN/C(=N\C#N)Nc1ccncc1)OCC1CCCCC1` [Compound 1138, N-(6-(2-cyano-3-(pyridin-4-yl)guanidino)hexyl)-N-(cyclohexylmethoxy)ethane-2-sulfonamide] the figure was 0.059 nM; with `O=c1c(NCCCCCCCCN(CCCN2CCOCC2)S(=O)(=O)C2CCCC2)c(Nc2ccncc2)c1=O` [Compound 1016, N-(8-(3,4-dioxo-2-(pyridin-4-ylamino)cyclobut-1-enylamino)octyl)-N-(3-morpholinopropyl)cyclopentanesulfonamide], 0.44 nM; with `CS(=O)(=O)N(CCCCCCCCNC(=O)NCc1cccnc1)OCc1ccccc1` [Compound 1022], 0.8 nM. The molecule `CCS(=O)(=O)N(CCCCCCCNc1c(Nc2ccncc2)c(=O)c1=O)OCC1CCCCC1` [Compound 1061, N-(cyclohexylmethoxy)-N-(7-(3,4-dioxo-2-(pyridin-4-ylamino)cyclobut-1-enylamino)heptyl)ethanesulfonamide] yielded an IC50 of 0.35 nM.

`O=C(NCCCCCCCCN(CCCN1CCOCC1)S(=O)(=O)C1CCCC1)NCc1cccnc1` [Compound 1012, N-(3-morpholinopropyl)-N-(8-(3-(pyridin-3-ylmethyl)ureido)octyl)cyclopentanesulfonamide] came in with an IC50 of 0.09 nM. With `O=c1c(NCCCCCCCN(CCF)S(=O)(=O)C2CCCCC2)c(Nc2ccncc2)c1=O` [Compound 1099, N-(7-(3,4-dioxo-2-(pyridin-4-ylamino)cyclobut-1-enylamino)heptyl)-N-(2-fluoroethyl)cyclohexanesulfonamide] the figure was 0.43 nM; with `O=c1c(NCCCCCCCN(OC2CCCCO2)S(=O)(=O)Cc2ccccc2)c(Nc2ccncc2)c1=O` (centres unmarked) [Compound 1056, N-(7-(3,4-Dioxo-2-(pyridin-4-ylamino)cyclobut-1-enylamino)heptyl)-1-Phenyl-N-(tetrahydro-2H-pyran-2-yloxy)methanesulfonamide], 0.35 nM; with `CCNC(=O)N(CCCCCCN/C(=N\C#N)Nc1ccncc1)OCC1CCCCC1` [Compound 1114, 1-(6-(2-cyano-3-(pyridin-4-yl)guanidino)hexyl)-1-(cyclohexylmethoxy)-3-ethylurea], 0.057 nM. With `N#C/N=C(\NCCCCCCCCN(CCCN1CCOCC1)C1CCCCC1)Nc1ccncc1` [Compound 1001] the figure was 0.49 nM; with `O=C(c1ccccc1)N(CCCCCCCCNc1c(Nc2ccncc2)c(=O)c1=O)CCCN1CCOCC1` [Compound 1072, N-(8-(3,4-dioxo-2-(pyridin-4-ylamino)cyclobut-1-enylamino)octyl)-N-(3-morpholinopropyl)benzamide], 0.17 nM. With `N#C/N=C(\NCCCCCCCN(OC1CCCCO1)S(=O)(=O)Cc1ccccc1)Nc1ccncc1` (centres unmarked) [Compound 1055] the figure was 0.025 nM; with `CC(C)NC(=O)N(CCCCCCN/C(=N\C#N)Nc1ccncc1)OCC1CCCCC1` [Compound 1115, 1-(6-(2-cyano-3-(pyridin-4-yl)guanidino)hexyl)-1-(cyclohexylmethoxy)-3-isopropylurea], 0.033 nM; with `N#C/N=C(\NCCCCCCCCN(CCCN1CCOCC1)C(=S)Nc1ccccc1)Nc1ccncc1` [Compound 1094, 1-(8-(2-cyano-3-(pyridin-4-yl)guanidino)octyl)-1-(3-morpholinopropyl)-3-Phenylthiourea], 0.036 nM. For the molecule `CP(C)(=O)N(CCCCCCCCN/C(=N\C#N)Nc1ccncc1)CCCN1CCOCC1` [Compound 1088, 2-Cyano-1-(8-((dimethylphosphoryl)(3-morpholinopropyl)amino)octyl)-3-(pyridin-4-yl)guanidine], the IC50 worked out at 5.65 nM. As to `N#C/N=C(\NCCCCCCNOCC1CCCCC1)Nc1ccncc1` [Compound 1110, 2-cyano-1-(8-(cyclohexylmethoxyamino)hexyl)-3-(pyridin-4-yl)guanidine], the midpoint of inhibition, the IC50, lay at 0.015 nM.

`CS(=O)(=O)N(CCCCCN/C(=N\C#N)Nc1ccncc1)OCC1CCCCC1` [Compound 1143]: half-maximal inhibition (IC50) was put at 0.081 nM.

As to `CS(=O)(=O)N(CCCCCCCCNC(=O)/C=C/c1cccnc1)CCCN1CCOCC1` [Compound 1033, N-(8-(N-(3-morpholinopropyl)methylsulfonamido)octyl)-3-(pyridin-3-yl)acrylamide], half-maximal inhibition (IC50) required 1.17 nM. With `O=C(c1ccccc1)N(CCCCCCCCNC(=S)Nc1ccncc1)CCCN1CCOCC1` [Compound 1075, N-(3-morpholinopropyl)-N-(8-(3-(pyridin-4-yl)thioureido)octyl)benzamide] the figure was 0.39 nM. With `O=C(NCCCCCCCCN(CCCN1CCOCC1)S(=O)(=O)C1CCCCC1)NCc1cccnc1` [Compound 1013, N-(3-morpholinopropyl)-N-(8-(3-(pyridin-3-ylmethyl)ureido)octyl)cyclohexanesulfonamide] the figure was 0.025 nM. With `CS(=O)(=O)N(CCCCCCCCN/C(=N\C#N)Nc1ccncc1)OCC1CCCCC1` [Compound 1124, N-(8-(2-cyano-3-(pyridin-4-yl)guanidino)octyl)-N-(cyclohexylmethoxy)methanesulfonamide] the figure was 0.15 nM. On to `CS(=O)(=O)N(CCCCCCCN/C(=N\C#N)Nc1ccncc1)OCC1CCCCC1` [Compound 1118, N-(7-(2-cyano-3-(pyridin-4-yl)guanidino)heptyl)-N-(cyclohexylmethoxy)methanesulfonamide], for which the IC50 stood at 0.046 nM. With `CCS(=O)(=O)N(CCCCCCCNC(=O)Nc1ccncc1)OCC1CCCCC1` [Compound 1064, N-(cyclohexylmethoxy)-N-(7-(3-(pyridin-4-yl)ureido)heptyl)ethanesulfonamide] the figure was 0.44 nM; with `O=C(NCCCCCCCCN(CCCN1CCOCC1)S(=O)(=O)c1ccccc1)NCc1cccnc1` [Compound 1037], 0.002 nM; with `O=C(NCCCCCCN(CCCN1CCOCC1)S(=O)(=O)C1CCCC1)NCc1cccnc1` [Compound 1046], 0.38 nM.

In turn, `CCON(CCCCCCCCN/C(=N\C#N)Nc1ccncc1)Cc1ccccc1` [Compound 1085, 1-(8-(benzyl(ethoxy)amino)octyl)-2-cyano-3-(pyridin-4-yl)guanidine] gave a half-inhibitory concentration (IC50) of 0.062 nM.
